Reference: patent US20230285598A1, “SULFOXONIUM YLIDE DERIVATIVES AS PROBES FOR CYSTEINE PROTEASE” (Takeda Pharmaceutical Company Limited, priority 2018, published 2023)
“Also recorded” adds a separate entry of the source.

Tests used:
cathepsin X [1] = target: T1, cathepsin X (Mus musculus, UniProt Q9WUU7); test: Probe labeling of kidney lysates, in-gel fluorescence; assay type: biochemical; settings: 0.1-5 µM for 20 minutes
Description: issues were harvested from healthy mice and snap frozen. At the time of analysis, lysis buffer was added at 10x volume:weight, and tissues were sonicated on ice. Cleared lysates were labeled with the indicated probe and analyzed as above.
In Example 7, sulfoxonium ylide probes as prepared in accordance with Example 1 were tested in kidney lysates and the results compared to BMV109. The sulfoxonium ylide probes (and BMV109) were each added with increasing probe concentrations of 0.1 µM, 0.5 µM, 1 µM and 5 µM for 20 minutes.

cathepsin X [2] = target: T1, cathepsin X; test: In vivo probe labeling in mice (intravenous), tissues analyzed by fluorescent SDS-PAGE
Description: For in vivo labeled tissues, mice were first injected intravenously via the tail vein with sCy5-Nle-SY, BMV109, or sCy5-Nle-AOMK (50 nmol in 100 µl 10% DMSO/PBS or vehicle control). Tissues were harvested and analyzed as above except without further probe addition.
In Example 10, the probe sCy5-Nle-SY, vehicle control/no probe (NP) or BMV109 were injected into mice intravenously. After two hours of circulation, tissues were harvested, lysed, and analyzed for probe labeling by fluorescent SDS-PAGE.
In Example 12, the AOMK probe sCy5-Nle-AOMK was tested in vivo and its labeling in tissues was analyzed. The probe was injected into mice intravenously. After two hours of circulation, tissues were harvested, lysed, and analyzed for probe labeling by fluorescent SDS-PAGE.

cathepsin X [3] = target: T1, cathepsin X; test: Confocal microscopy of kidney cryosections after in vivo probe administration
Description: Kidney tissues from mice that received sCy5-Nle-SY (or vehicle control) above were fixed overnight in 4% paraformaldehyde in PBS followed by overnight cryoprotection in 30% sucrose. Tissues were embedded in OCT, frozen on dry ice, and sectioned at 10 µm. Immunostaining for cathepsin X was carried out according to standard protocols. In brief, sections were air dried, fixed in cold acetone for 10 minutes, air dried again, and then rehydrated in PBS. Sections were blocked in PBS containing 3% normal horse serum with 0.1% Triton X-100. Goat anti-cathepsin X was added at 1:100 in blocking buffer overnight at 4° C. Sections were then washed, and secondary antibody, donkey anti-goat-AlexaFluor594 was added at 1:500 for 1 hour at room temperature. Sections were stained with DAPI for 5 minutes, washed, and mounted with ProLong Diamond. Staining was analyzed using a Leica SP8 inverted confocal microscope.
Additionally, after in vivo probe administration, kidney cryosections from sCy5-Nle-SY-injected mice or no-probe control were prepared and analyzed by confocal microscopy for sCy5 fluorescence (red) or cathepsin X immunoreactivity (green) along with DAPI (blue) to visualize nuclei. […] Thus, sCy5-Nle-SY could be used to distinguish active cathepsin X relative to total cathepsin X in tissues after in vivo administration.

cathepsin X [4] = target: T1, cathepsin X; test: Probe labeling of living RAW264.7 cells, in-gel fluorescence; assay type: cell-based; design: protein lysates prepared from RAW264.7 cells; host or cells: RAW264.7; settings: Example 8; 0.1-5 µM for 2 hours
Description: AW cells or MDA-MB-231 ^HM cells were plated in 12-well plates. Where indicated, MDV-590 or vehicle was added at 10 µM from a 10 mM DMSO stock for overnight incubation. When the cell density reached 80%, the indicated probes were added at the indicated concentrations from a 1000x DMSO stock and allowed to incubate for the indicated time. Media was then removed and replaced with PBS. The cells were then scraped and transferred to tubes, and lysis and SDS-PAGE analysis were carried out as above, except skipping the probe addition step. […]
In Example 8, sulfoxonium ylide probes as prepared in accordance with Example 1 were applied to live RAW264.7 cells for two hours, in order to examine the potency and permeability of the sulfoxonium ylide probe series in living cells, and the results compared to BMV109.
The sulfoxonium ylide probes (and BMV109) were each added with increasing probe concentrations of 0.1 µM, 0.5 µM, 1 µM and 5 µM for 2 hours. […]

cathepsin X [5] = target: cathepsin X (Homo sapiens, UniProt Q9UBR2); test: Labeling of human oral squamous cell carcinoma tissue lysates, in-gel fluorescence; assay type: biochemical; design: Tissues were lysed by sonication in citrate buffer and supernatants were cleared by centrifugation; from tissue; host or cells: human oral squamous cell carcinoma biopsies and patient-matched normal oral mucosa; settings: °C5 µM for 20 minutes; 80 µg protein
Chain of cathepsin X (Homo sapiens, UniProt Q9UBR2) (Q9UBR2 62-303): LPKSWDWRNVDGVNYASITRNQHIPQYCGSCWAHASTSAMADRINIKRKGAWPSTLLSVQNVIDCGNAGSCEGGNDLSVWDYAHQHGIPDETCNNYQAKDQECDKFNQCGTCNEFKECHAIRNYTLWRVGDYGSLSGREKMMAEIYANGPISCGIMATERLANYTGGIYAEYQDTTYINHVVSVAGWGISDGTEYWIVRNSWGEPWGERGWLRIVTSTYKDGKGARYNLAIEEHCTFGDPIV
Source text: To investigate the ability of sCy5-,Nle-SY to label cathepsin X in human tissues, biopsies that were obtained from patients with oral squamous cell carcinoma were used. Normal oral mucosal tissues that were biopsied from the contralateral side of the tongues of the same patients were used as controls.
The human oral squamous cell carcinomas or patient-matched normal oral mucosa were biopsied according to protocols approved by the Institutional Review Board at the New York University Oral Cancer Centre. Biopsies were immediately snap-frozen and stored at -80° C. Tissues were lysed by sonication in citrate buffer and supernatants were cleared by centrifugation. Total protein concentration was assessed by BCA assay and 80 µg were labelled with Cy5-Nle-SY: The lysates prepared from the oral squamous cell carcinoma tissue or patient-matched normal oral mucosa were incubated with sCy5-Nle-SY (°C5 µM for 20 minutes) and labeling was analyzed by in-gel fluorescence (fluorescent SDS-PAGE). Samples were also immunoblotted to determine total cathepsin X expression (n=10). Additionally, the sCy5-Nle-SY-labeled cancer lysates were immunoprecipitated with a cathepsin X-specific antibody to verify the identity of the labeled protein.

[6] = intravenous 50 nmol, two hours of circulation

T1 sequence (Q9WUU7 64-306): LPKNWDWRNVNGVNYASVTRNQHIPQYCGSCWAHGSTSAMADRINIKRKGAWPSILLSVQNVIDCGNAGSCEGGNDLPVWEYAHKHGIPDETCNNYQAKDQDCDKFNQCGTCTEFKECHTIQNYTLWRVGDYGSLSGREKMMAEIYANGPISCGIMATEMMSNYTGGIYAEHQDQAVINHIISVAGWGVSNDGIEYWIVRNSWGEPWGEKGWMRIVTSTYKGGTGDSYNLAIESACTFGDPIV

CCCC[C@H](NC(=O)CCCCCN1/C(=C/C=C/C=C/C2=[N+](CC)c3ccc(S(=O)(=O)[O-])cc3C2(C)C)C(C)(C)c2cc(S(=O)(=O)O)ccc21)C(=O)C=S(C)(C)=O [sCy5-Nle-SY]
potency and specificity of labeling in kidney lysates (cathepsin X [1]): the most potency and specificity for cathepsin X
labeling of cathepsin S, B and L in tissues after in vivo administration (cathepsin X [2]; [6]): some labeling of cathepsin S was also observed; also recorded: does not label cathepsin B or L
labeling of cathepsin X in tissues after in vivo administration (cathepsin X [2]; [6]): Labeling of cathepsin X was observed in liver, kidney, colon, stomach, and spleen
overall specificity profile in vivo (cathepsin X [2]; intravenous, two hours, compared to BMV109): clearly improved compared to BMV109
sCy5 fluorescence in kidney cryosections (cathepsin X [3]; after in vivo probe administration): Strong punctate sCy5 fluorescence was observed
overlap of sCy5 signal with cathepsin X immunoreactivity (cathepsin X [3]; kidney cryosections after in vivo probe administration): signal largely overlapped with immunoreactive cathepsin X
cathepsins labeled in live RAW264.7 cells (cathepsin X [4]): labeled cathepsin X and S to similar extents and with similar potency
labeling of cathepsin X in human oral squamous cell carcinoma lysates (cathepsin X [5]): clear and selective labeling of cathepsin X was observed
